# Source: ChEMBL document CHEMBL5335862, “The Science and Art of Structure-Based Virtual Screening” (ACS Med Chem Lett, 2024)
# Target: CREB-binding protein (Homo sapiens, UniProt Q92793)
# Experiment: Inhibition of CREBBP (unknown origin) by TR-FRET assay
# Chain of CREB-binding protein (Q92793 whole entry): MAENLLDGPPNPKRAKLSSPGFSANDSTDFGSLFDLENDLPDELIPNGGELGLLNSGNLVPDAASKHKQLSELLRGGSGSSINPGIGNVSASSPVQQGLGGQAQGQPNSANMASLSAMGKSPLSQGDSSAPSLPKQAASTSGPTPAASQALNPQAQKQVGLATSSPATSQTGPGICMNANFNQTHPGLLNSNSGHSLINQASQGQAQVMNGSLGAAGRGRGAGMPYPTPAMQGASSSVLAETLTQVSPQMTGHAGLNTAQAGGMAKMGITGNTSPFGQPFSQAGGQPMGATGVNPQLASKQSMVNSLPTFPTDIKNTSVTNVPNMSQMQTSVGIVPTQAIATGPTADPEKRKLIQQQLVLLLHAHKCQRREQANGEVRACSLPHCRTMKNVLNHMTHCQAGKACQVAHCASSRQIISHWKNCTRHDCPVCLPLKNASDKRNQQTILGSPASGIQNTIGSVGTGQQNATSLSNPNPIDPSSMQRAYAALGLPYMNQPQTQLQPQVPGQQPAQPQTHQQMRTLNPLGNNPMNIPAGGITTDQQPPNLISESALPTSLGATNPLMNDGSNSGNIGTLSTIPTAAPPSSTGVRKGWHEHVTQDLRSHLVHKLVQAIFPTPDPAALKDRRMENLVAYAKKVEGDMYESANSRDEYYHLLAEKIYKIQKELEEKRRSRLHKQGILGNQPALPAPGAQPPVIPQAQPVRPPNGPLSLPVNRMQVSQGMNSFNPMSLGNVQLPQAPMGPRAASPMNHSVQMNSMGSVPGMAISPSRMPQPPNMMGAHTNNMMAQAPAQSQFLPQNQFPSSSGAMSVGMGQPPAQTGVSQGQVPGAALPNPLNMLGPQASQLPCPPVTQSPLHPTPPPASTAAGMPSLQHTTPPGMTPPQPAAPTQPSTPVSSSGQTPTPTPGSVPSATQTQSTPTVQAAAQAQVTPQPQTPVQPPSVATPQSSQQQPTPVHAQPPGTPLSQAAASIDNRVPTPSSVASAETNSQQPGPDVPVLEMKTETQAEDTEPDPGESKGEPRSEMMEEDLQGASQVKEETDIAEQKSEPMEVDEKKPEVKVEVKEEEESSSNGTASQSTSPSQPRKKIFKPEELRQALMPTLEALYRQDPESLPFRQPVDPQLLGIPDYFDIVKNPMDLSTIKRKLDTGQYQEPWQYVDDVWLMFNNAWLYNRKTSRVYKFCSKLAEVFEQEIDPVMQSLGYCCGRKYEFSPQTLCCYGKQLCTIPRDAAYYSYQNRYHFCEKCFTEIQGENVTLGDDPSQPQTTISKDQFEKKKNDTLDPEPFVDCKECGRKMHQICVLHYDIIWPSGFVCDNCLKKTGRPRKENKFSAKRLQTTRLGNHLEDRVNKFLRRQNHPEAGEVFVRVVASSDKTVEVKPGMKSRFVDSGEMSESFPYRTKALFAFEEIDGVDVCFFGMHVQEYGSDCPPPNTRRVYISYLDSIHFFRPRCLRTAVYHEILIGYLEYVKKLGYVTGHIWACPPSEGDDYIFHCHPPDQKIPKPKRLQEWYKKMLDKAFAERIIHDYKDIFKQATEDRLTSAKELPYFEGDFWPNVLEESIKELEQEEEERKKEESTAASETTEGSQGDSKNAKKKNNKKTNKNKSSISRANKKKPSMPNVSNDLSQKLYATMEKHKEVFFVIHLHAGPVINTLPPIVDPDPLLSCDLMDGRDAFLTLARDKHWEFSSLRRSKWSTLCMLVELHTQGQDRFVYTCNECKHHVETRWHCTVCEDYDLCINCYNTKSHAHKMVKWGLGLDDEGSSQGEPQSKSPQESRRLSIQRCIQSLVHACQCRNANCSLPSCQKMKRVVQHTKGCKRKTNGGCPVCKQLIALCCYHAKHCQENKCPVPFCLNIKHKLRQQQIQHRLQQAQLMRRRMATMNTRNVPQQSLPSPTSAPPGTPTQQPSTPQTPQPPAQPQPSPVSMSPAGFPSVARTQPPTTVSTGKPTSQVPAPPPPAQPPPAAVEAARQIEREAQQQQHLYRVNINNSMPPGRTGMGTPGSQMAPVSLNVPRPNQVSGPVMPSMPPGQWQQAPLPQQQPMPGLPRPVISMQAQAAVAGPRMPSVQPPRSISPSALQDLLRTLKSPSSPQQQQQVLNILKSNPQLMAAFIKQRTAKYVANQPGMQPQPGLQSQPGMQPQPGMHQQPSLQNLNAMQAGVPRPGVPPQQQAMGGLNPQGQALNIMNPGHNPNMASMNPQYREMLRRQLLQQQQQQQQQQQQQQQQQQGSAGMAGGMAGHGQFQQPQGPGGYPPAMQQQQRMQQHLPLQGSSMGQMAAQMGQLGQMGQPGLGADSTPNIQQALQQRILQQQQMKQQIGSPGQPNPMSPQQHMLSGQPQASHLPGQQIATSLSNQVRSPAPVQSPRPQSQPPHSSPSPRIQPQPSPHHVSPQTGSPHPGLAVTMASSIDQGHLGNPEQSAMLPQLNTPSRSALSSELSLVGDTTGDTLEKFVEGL
row,IC50,SMILES
1,300 nM,Cc1ccc(O)cc1-n1c(N)c(C(N)=O)c2nc3ccccc3nc21
2,300 nM,Cc1cc2c(C(N)=O)c(N)n(-c3c(C)ccc(O)c3C)c2nc1C [LUNRESERTIB]
